Reference: patent publication US8124605B2, “Compositions and methods for modulating a kinase cascade” (Kinex Pharmaceuticals, LLC, priority 2007, dated 2012)

Columns and labels:
Format in all cases: cell-based
JAK3 = biological target: T1, JAK3 (Homo sapiens, UniProt P52333); assay: JAK phosphorylation/activation by flow cytometry, pSTAT5 staining in IL-4 stimulated U-937 cells; details: drug 30 min, then IL-4
T1 construct: U-937 cells, histiocytic lymphoma cell line; endogenous in cells; host or cells: U-937 (ATCC CRL-1593.2)
T1 sequence (P52333 1-1124): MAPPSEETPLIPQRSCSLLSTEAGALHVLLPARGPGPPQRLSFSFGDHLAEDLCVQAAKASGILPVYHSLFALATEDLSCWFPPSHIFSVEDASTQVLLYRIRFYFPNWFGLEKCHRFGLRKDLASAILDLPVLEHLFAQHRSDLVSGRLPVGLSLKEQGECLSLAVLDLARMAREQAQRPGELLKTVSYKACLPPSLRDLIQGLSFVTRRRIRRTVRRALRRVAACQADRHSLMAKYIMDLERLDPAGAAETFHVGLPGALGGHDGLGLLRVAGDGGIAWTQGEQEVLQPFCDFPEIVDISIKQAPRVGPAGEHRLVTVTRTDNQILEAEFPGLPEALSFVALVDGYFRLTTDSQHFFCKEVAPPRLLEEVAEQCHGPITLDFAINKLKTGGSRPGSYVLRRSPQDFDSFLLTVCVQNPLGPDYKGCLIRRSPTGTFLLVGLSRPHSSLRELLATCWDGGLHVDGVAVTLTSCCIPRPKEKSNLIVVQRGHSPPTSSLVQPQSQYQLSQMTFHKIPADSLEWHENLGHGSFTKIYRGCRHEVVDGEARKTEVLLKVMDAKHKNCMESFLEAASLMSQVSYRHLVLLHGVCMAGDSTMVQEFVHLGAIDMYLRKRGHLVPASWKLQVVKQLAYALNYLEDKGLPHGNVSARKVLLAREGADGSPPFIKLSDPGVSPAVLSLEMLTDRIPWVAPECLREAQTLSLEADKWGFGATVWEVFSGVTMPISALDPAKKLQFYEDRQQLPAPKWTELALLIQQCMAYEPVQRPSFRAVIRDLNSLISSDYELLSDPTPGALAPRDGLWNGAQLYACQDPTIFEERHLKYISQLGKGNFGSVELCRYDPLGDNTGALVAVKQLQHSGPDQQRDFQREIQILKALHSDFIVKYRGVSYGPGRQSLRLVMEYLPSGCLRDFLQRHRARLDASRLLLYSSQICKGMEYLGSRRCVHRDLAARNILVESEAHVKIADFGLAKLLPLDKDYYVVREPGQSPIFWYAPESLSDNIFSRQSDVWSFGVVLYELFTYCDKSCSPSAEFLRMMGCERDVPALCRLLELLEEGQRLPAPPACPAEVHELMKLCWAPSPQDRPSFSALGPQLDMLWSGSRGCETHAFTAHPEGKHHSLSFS
Description: (§1) The protocol used to analyze the effect of compounds of the invention on JAK phosphorylation/activation is adapted from: Krutzik and Nolan, Cytometry Part A 55A:61-70 (2003).
(§2) Briefly, U-937 cells, histiocytic lymphoma cell line; ATCC No. CRL-1593.2, were treated with compounds of the invention or commercial JAK inhibitors. Cells were then stimulated with IL-4, to engage the JAK/STAT signaling pathway. Cells were fixed with formaldehyde to “freeze” the phosphorylation states of intracellular proteins. Cells were next permeabilized, and stained with mAbs directed against the phosphorylated STAT (pSTAT) proteins. The positive shift in fluorescence due to pSTAT staining serves as a surrogate to JAK phosphorylation/activation: no flow cytometric mAbs specific to JAKs exist, so the proximal downstream signaling event, STAT phosphorylation, is measured. A decrease in fluorescence, due to drug incubation prior to IL-4 stimulation, is an indirect indication of JAK inhibition. The following antibodies were used: apSTAT5-PE: monoclonal antibody to the intracellular STAT5a protein phosphorylated at Tyrosine 694; conjugated to the fluorochrome phycoerythrin (PE); BD No. 612567 and apSTAT6-Alex647: monoclonal antibody to the intracellular STAT6 protein phosphorylated at Tyrosine 641; conjugated to the fluorochrome Alexa Fluor 647; BD No. 612601. The detailed protocol is described below:
(§3) Resuspend U-937 cells @ 8×10^5 cells/mL in complete culture medium (RPMI-1640/10% FBS).
(§4) Add 0.5 mL cell suspension to each well of 24-well tissue culture plate.
(§5) Add drug treatment (compounds, controls) for 30 min @ 37° C., 5% CO2.
(§6) Add cytokine/growth factor to stimulate; 15-30 min @ 37° C. (1 μL/0.5 mL cell suspension; IL-4, IL-2, IL-15=20 ng/mL)
(§7) Transfer cells to 5 mL Flow tubes.
(§8) Add 16% Formaldehyde directly to cell culture to obtain final concentration of 1.5% formaldehyde. (47 μL formaldehyde+0.5 mL cell culture)
(§9) Incubate cells in fixative for 15 min @ 37° C., 5% CO2.
(§10) Add 3 mL cold “Staining Media” (PBS/1% BSA) to each tube; centrifuge cells @ 1100 RPM, 3 min. Discard supernatant.
(§11) Resuspend cells with vigorous vortexing in 200 μL ice-cold Methanol.
(§12) Incubate cells on ice, 30 min.
(§13) Wash cells twice in 2 mL “Staining Medium” (centrifuge cells @ 1100 RPM, 3 min). Discard supernatant.
(§14) Add 8 μL of fluorophore-conjugated, phosphoprotein-specific mAbs to cells. Incubate cells at RT, 60 min, in the dark.
(§15) Wash cells with 4 mL Staining Media. Centrifuge cells @ 1100 RPM, 3 min. Discard supernatant.
(§16) Resuspend cells in 350 μL Staining Media.
(§17) Acquire cellular events on BD FACSCalibur cytometer.

SYF/c-Src527F cell line = assay: Cell proliferation assay (MTT assay), GI50; details: Mus musculus, 72 h, 3 days incubation
Description: (§18) The GI50s for several of the compounds of the invention are assayed as described herein.
(§19) Cell line and culture media—the human colon tumor cell line HT-29 was obtained from Dr. Irwin Gelman (Roswell Park Cancer Institute, Buffalo, N.Y.) and maintained in McCoy's 5A medium supplemented with 2% fetal bovine serum and penicillin-streptomycin. SYF/c-Src527F cell line was also obtained from Dr. Irwin Gelman and maintained in Dulbecco's modified Eagle's medium (DMEM) supplemented with 2% bovine serum and penicillin-streptomycin. Both cell lines were incubated in an atmosphere containing 5% CO2 at 37° C.
(§20) Cell proliferation assay (MTT assay)-HT-29 (7,000 cells) and SYF/c-Src527F (4,000 cells) cells were plated in 120 μl of culture medium per well of 96-well plate. Cells were incubated overnight before drug treatment. Test compounds were diluted in culture medium in a separate 96-well plate to yield 10× concentrations of test dose (50 nM, 500 nM, 5 μM, 50 μM, and 500 μM). 13.3 μl of the 10× compound was added to each well of cells to achieve the final test concentrations (5 nM, 50 nM, 500 nM, 5 μM and 50 μM). After 3 days incubation, 10 μl of MTT (Thiazolyl Blue Tetrazolium Bromide, 5 mg/ml in PBS) was added to each well and incubate for 3 hours at 37° C. After removal of culture medium, 100 μl of isopropanol containing 40 mM HCl was added to each well and incubate for 10 minutes on a shaker to dissolve the MTT formazan. Optical density (OD) at 570 nm was then measured using microplate reader and cell growth inhibition (percentage of growth) by each concentration of drug was calculated as: % growth=100×[(T−T0)/(C−T0)] (T: OD of the test well exposure to test drug; C: OD of the control well without drug treatment; T0: OD at time zero). Growth inhibition curves and GI50 were determined using GraphPad Prism 5 statistical software.

[1] = test system: human colon tumor cell line HT-29; assay: Cell proliferation assay (MTT assay), GI50; details: HT-29, 72 h, 3 days incubation, read-out: GI50 HT29
Description: as §18, §19, §20

JAK1 = biological target: T2, JAK1 (Homo sapiens, UniProt P23458); assay: JAK phosphorylation/activation by flow cytometry, pSTAT6 staining in IL-4 stimulated U-937 cells; details: drug 30 min, then IL-4
T2 construct: U-937 cells, histiocytic lymphoma cell line; endogenous in cells; host or cells: U-937 (ATCC CRL-1593.2)
Description: as §1, §2, §3, §4, §5, §6, §7, §8, §9, §10, §11, §12, §13, §14, §15, §16, §17

T2 sequence (P23458 whole entry): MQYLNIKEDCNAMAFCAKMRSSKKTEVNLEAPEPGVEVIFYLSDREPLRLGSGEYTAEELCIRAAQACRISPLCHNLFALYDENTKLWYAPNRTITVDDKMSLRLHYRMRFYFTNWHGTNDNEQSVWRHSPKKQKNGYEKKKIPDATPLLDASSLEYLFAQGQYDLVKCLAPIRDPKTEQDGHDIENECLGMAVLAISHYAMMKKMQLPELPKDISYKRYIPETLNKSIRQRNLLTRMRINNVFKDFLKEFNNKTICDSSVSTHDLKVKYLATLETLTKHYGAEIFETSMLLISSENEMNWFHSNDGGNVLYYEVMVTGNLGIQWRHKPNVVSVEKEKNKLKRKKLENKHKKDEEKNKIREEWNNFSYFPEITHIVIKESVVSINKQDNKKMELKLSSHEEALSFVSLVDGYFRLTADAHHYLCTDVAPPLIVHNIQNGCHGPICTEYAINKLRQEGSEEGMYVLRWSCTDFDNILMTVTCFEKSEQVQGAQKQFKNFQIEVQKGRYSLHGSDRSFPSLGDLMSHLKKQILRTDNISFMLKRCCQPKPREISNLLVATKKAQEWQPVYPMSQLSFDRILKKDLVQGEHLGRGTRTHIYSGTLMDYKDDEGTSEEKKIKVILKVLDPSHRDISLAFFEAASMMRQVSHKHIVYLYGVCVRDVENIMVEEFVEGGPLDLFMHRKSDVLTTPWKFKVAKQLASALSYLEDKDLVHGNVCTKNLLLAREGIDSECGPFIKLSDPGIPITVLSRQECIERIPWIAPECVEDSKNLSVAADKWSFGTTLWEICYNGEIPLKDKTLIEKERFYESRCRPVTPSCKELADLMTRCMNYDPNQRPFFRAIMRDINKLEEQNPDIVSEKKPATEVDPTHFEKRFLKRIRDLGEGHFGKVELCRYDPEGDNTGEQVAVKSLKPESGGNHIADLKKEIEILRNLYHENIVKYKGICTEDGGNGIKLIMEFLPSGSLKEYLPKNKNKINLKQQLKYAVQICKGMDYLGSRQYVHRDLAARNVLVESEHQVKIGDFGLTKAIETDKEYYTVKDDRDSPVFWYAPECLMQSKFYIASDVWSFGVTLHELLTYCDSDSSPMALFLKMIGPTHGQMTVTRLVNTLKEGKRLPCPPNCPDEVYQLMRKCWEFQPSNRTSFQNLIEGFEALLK

O=C(NCCc1ccc(-c2ccccc2)cc1)c1ccccc1 [Compound 126]
JAK3 pStat5-PE Signal (JAK3): 5.34
JAK3 pStat5-PE Signal/Background (JAK3): 1.82
GI50 (SYF/c-Src527F cell line): 3.1 µM
GI50 [1]: 2.8 µM
JAK1 pStat6-Alexa647 Signal (JAK1): 30.85
JAK1 pStat6-Alexa647 Signal/Background (JAK1): 7.38

[O-][S+](CCc1ccccc1)Cc1ccc(-c2ccccc2)cc1 (stereo not shown) [Compound 137]
JAK3 pStat5-PE Signal (JAK3): 3.71
JAK3 pStat5-PE Signal/Background (JAK3): 1.27
GI50 (SYF/c-Src527F cell line): 0.97 µM
GI50 [1]: 1.8 µM
JAK1 pStat6-Alexa647 Signal (JAK1): 22.03
JAK1 pStat6-Alexa647 Signal/Background (JAK1): 5.27

O=C(NCc1ccccc1)Nc1ccc(-c2ccccc2)cn1 [Compound 129]
JAK3 pStat5-PE Signal (JAK3): 4.15
JAK3 pStat5-PE Signal/Background (JAK3): 1.42
GI50 (SYF/c-Src527F cell line): 24.7 µM
GI50 [1]: 5.4 µM
JAK1 pStat6-Alexa647 Signal (JAK1): 23.06
JAK1 pStat6-Alexa647 Signal/Background (JAK1): 5.51

COc1cc2ncnc(Nc3ccc(O)c(Br)c3)c2cc1OC [WHI-P154]
JAK3 pStat5-PE Signal (JAK3): 1.63
JAK3 pStat5-PE Signal/Background (JAK3): 0.56
JAK1 pStat6-Alexa647 Signal (JAK1): 14.54
JAK1 pStat6-Alexa647 Signal/Background (JAK1): 3.48

O=C(Cc1ccc(-c2ccccc2)cc1)NCc1cccc(F)c1 [drawing 586]
GI50 (SYF/c-Src527F cell line): 0.46 µM
GI50 [1]: 0.27 µM

O=C(Cc1ccccc1)NCc1ccc(OCc2ccccc2)cc1 [Compound 163]
JAK3 pStat5-PE Signal (JAK3): 3.24
JAK3 pStat5-PE Signal/Background (JAK3): 1.22
GI50 (SYF/c-Src527F cell line): 275 µM
GI50 [1]: 62.9 µM
JAK1 pStat6-Alexa647 Signal (JAK1): 15.35
JAK1 pStat6-Alexa647 Signal/Background (JAK1): 4.04

c1ccc(CCSCc2ccc(-c3ccccc3)cc2)cc1 [Compound 135]
JAK3 pStat5-PE Signal (JAK3): 3.48
JAK3 pStat5-PE Signal/Background (JAK3): 1.19
GI50 (SYF/c-Src527F cell line): 18.6 µM
GI50 [1]: 9.7 µM
JAK1 pStat6-Alexa647 Signal (JAK1): 17.15
JAK1 pStat6-Alexa647 Signal/Background (JAK1): 4.10

c1ccc(CNCCc2ccc(-c3ccccc3)cc2)cc1 [Compound 127]
JAK3 pStat5-PE Signal (JAK3): 3.38
JAK3 pStat5-PE Signal/Background (JAK3): 1.15
GI50 (SYF/c-Src527F cell line): 1.4 µM
GI50 [1]: 3.3 µM
JAK1 pStat6-Alexa647 Signal (JAK1): 18.81
JAK1 pStat6-Alexa647 Signal/Background (JAK1): 4.50

O=C(NCc1ccccc1)Oc1ccc(-c2ccccc2)cc1 [Compound 130]
JAK3 pStat5-PE Signal (JAK3): 5.21
JAK3 pStat5-PE Signal/Background (JAK3): 1.78
GI50 (SYF/c-Src527F cell line): 7.6 µM
GI50 [1]: 27.1 µM
JAK1 pStat6-Alexa647 Signal (JAK1): 31.77
JAK1 pStat6-Alexa647 Signal/Background (JAK1): 7.60

O=C(Cc1ccc(-c2ccccc2)cc1)NCc1cccc(F)c1 [Control A]
JAK3 pStat5-PE Signal (JAK3): 4.12
JAK3 pStat5-PE Signal/Background (JAK3): 1.41
JAK1 pStat6-Alexa647 Signal (JAK1): 23.79
JAK1 pStat6-Alexa647 Signal/Background (JAK1): 5.69
